Experimental data taken from patent US9458123B2, “Methods, pharmaceutical compositions, therapeutic systems, and compounds for treating B cell malignancies” (University of Rochester, priority 2012, dated 2016).
Entries after “also recorded” stand apart in the source; their conditions may differ.

Experiments:
[1] = system: IκBα phosphorylation by RANKL in RAW264.7 cells; assay: IκBα phosphorylation after RANKL, western blot; assay type: cell-based; settings: RAW264.7, RANKL 15 ng/ml
Protocol: SUDHL-6, RAW264.7, and MEF cells were treated with NSC697923 or DMSO (control) for 1 hour before being stimulated with the PMA (100 ng/ml), RANKL (15 ng/ml), and LPS (1.5 μg/ml) for the indicated times. The levels of IκBα phosphorylation in the indicated samples were assessed by western blotting.

[2] = system: PMA-induced NF-κB activation in 293T-NF-luc cells; assay: NF-κB luciferase reporter assay, PMA stimulation; assay type: cell-based; settings: PMA 100 ng/ml, 6 hours
Protocol: In FIG. 1B, 293T-NF-luc cells were pretreated with the indicated concentrations of NSC697923 or DMSO (final concentration 0.2%; control) for 1 hour. The cells were then stimulated with PMA (100 ng/ml) or TNFα(10 ng/ml) for 6 hours, and the green fluorescence (from GFP for normalization) and luciferase activity in the cell lysate were measured. Data were expressed as the percentage activity of the control (mean+/−standard deviation (SD); n=3). […] The cells were harvested at the indicated times after stimulation, and phosphorylation of IKK and IκBα were analyzed by western blotting. Analysis of actin was used as the loading control.
FIGS. 2A-2D show the effect of NSC697923 related compounds on NF-κB activation induced by PMA. […]
HEK293T cells were transfected with the pNF-κB luciferase reporter construct, which contains four copies of the NF-κB binding site upstream of firefly luciferase gene (Moran et al., “Protein Kinase C-Associated Kinase can Activate NFkappaB in Both a Kinase-Dependent and a Kinase Independent Manner,” J. Biol. Chem. 278:21526-21533 (2003), which is hereby incorporated by reference in its entirety), together with the pBabe-puro for selection. Individual clones, selected with 1.5 μg/m puromycin, were assessed for NF-κB-luciferase reporter activation by TNFα and PMA. […]

[3] = target: T1, Ubc13 (Homo sapiens, UniProt P61088); assay: In vitro Ubc13~Ub thioester conjugate formation; assay type: biochemical; settings: E1, Ubc13-Uev1A, ubiquitin, ATP
T1 construct: purchased Boston Biochem Inc E2-600 (Ubc13); E2-662 (Uev1A)
Protocol: Purified GST or GST-Ubc13 fusion proteins were incubated with the cell extract prepared from OCI-Ly10 cells with or without the presence of NSC697923 as indicated. The amounts of Uev1A protein associated with GST or GST-Ubc13 were analyzed by western blotting. The first lane was loaded with 8% of the input cell lysate. […] The assay was carried out as described in FIG. 4A, except that the loading buffer for SDS-PAGE gel contains no reducing agent, unless otherwise specified, and the reaction was analyzed by western blotting with a Ubc13-specific antibody. […] The assay was carried out as in FIG. 5B, except that UbcHSc, instead of Ubc13 and Uev1A, was used in the ubiquitination reaction and that a UbcHSc antibody was used for western blot analysis.
For detecting the E2-ubiquitin (Ubc13˜Ub or UbcH5c˜Ub) thioester conjugates, the reactions were carried out as described above without GST-TRAF6. The reactions were terminated with the SDS-sample buffer without a reducing agent unless specified. The products were analyzed by western blotting with an anti-Ubc13 or anti-UbcHSc antibody as indicated.

[4] = system: OCI-Ly7; assay: Proliferation and survival of GCB DLBCL cells (trypan blue, annexin V); assay type: cell-based; settings: OCI-Ly7, 24 hours
Protocol: (§1) In FIG. 8A, the GCB DLBCL cells were plated at the indicated cell concentrations and treated with various concentrations of NSC697923 for 24 hours. The effects of NSC697923 on the growth of these cells were analyzed as described in FIG. 7A. In FIG. 8B, the cells were plated at a concentration of 4×10^5 cells/ml and treated with NSC697923 as in FIG. 8A, and the apoptotic cells were analyzed as described in FIG. 7C.
(§2) Apoptosis was assayed using the 7AAD/annexin V apoptosis kit (BD Bioscience) as previously described (Kim et al., “Protein Kinase C-Associated Kinase is Required for NF-kappaB Signaling and Survival in Diffuse Large B-Cell Lymphoma Cells,” Blood 111:1644-1653 (2008), which is hereby incorporated by reference in its entirety). Analysis of the cell cycle distribution of the treated cells was carried out with propidium iodide (PI) and BrdU double staining as previously described (DeRan et al., “Assessing G1-to-S-Phase Progression after Genotoxic Stress,” Methods Mol. Biol. 782:221-230 (2011) and Su et al., “DNA Damage Induces Downregulation of Histone Gene Expression Through the G1 Checkpoint Pathway,” EMBO. J. 23:1133-1143 (2004), each of which is hereby incorporated by reference in its entirety).

[5] = system: SUDHL-6; assay: as above; assay type: cell-based; settings: SUDHL-6, 24 hours
Protocol: as §1, §2

T1 sequence (P61088 whole entry): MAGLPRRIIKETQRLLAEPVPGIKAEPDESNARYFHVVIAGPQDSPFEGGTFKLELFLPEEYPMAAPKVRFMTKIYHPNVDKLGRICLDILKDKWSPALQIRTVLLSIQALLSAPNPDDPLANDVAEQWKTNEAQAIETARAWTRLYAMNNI
T1 sequence (Q13404 whole entry partner): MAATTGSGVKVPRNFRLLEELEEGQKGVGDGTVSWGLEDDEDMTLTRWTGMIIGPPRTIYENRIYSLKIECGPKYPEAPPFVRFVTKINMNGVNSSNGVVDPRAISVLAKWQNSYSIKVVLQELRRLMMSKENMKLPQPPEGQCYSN

## Cc1ccc(S(=O)(=O)c2ccc([N+](=O)[O-])o2)cc1 [NSC697923, 2-nitro-5-tosylfuran]
[1]
  IκBα phosphorylation by RANKL: inhibited
[2]
  PMA-induced NF-κB activation (luciferase reporter): selective inhibitory effect; also recorded: inhibits NF-κB activation induced by PMA
[3]
  formation of Ubc13~Ub thioester conjugate: inhibited formation of this thioester conjugate
[4]
  proliferation and survival: inhibited proliferation and survival
[5]
  proliferation and survival: inhibited proliferation and survival
